Measurements reported in the NIST ThermoML archive (doi:10.1021/je7004837).
Numbers after ± are expanded uncertainties.

Conditions: Liquid, Ebulliometric method (Recirculating still)

Row | vapor or sublimation pressure (273.15 K) | vapor or sublimation pressure (283.15 K) | vapor or sublimation pressure (293.15 K) | vapor or sublimation pressure (303.15 K) | vapor or sublimation pressure (313.15 K) | vapor or sublimation pressure (323.15 K) | Structure (SMILES)
1 | 194 ± 2 kPa | 280 ± 2 kPa | 389 ± 3 kPa | 527 ± 3 kPa | 704 ± 3 kPa | 920 ± 4 kPa | FC(C(F)(F)F)C(F)(F)F [1,1,1,2,3,3,3-heptafluoropropane]
2 | 104 ± 2 kPa | 150 ± 2 kPa | 208 ± 2 kPa | 284 ± 2 kPa | 378 ± 2 kPa | 494 ± 3 kPa | CCCC [butane]
